Measured values as given in the supplement of paper PMC10307832.

What was measured:
Assay in all cases: relative viability (nuclei count vs DMSO), 5 days (fraction); higher = more cells survive
SK-MES-1 = test system: SK-MES-1
Outline: (§1)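 Values are medians from duplicate plates. Each reflects relative viability, defined as the nuclei count of treated wells over that of vehicle wells. Lung cancer cell lines in 1536-well plates were pin-tool dosed one day after seeding with one drug alone or with a fixed anchor-drug dose plus five library-drug doses (not always all listed) in √10 steps, then fixed, stained and imaged at 4× after 5 days.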

EKVX = test system: EKVX
Outline: as §1

CAL-12T = test system: CAL-12T
Outline: as §1

NCI-H2228 = test system: NCI-H2228
Outline: as §1

H3255 = test system: H3255
Outline: as §1

ABC-1 = test system: ABC-1
Outline: as §1

NCI-H460 = test system: NCI-H460
Outline: as §1

NCI-H2085 = test system: NCI-H2085
Outline: as §1

NCI-H322M = test system: NCI-H322M
Outline: as §1

NCI-H2342 = test system: NCI-H2342
Outline: as §1

HCC-366 = test system: HCC-366
Outline: as §1

EPLC-272H = test system: EPLC-272H
Outline: as §1

NCI-H2087 = test system: NCI-H2087
Outline: as §1

NCI-H441 = test system: NCI-H441
Outline: as §1

ChaGo-K-1 = test system: ChaGo-K-1
Outline: as §1

COR-L 105 = test system: COR-L 105
Outline: as §1

NCI-H1975 = test system: NCI-H1975
Outline: as §1

HCC-827 = test system: HCC-827
Outline: as §1

NCI-H2009 = test system: NCI-H2009
Outline: as §1

NCI-H1355 = test system: NCI-H1355
Outline: as §1

NCI-H1993 = test system: NCI-H1993
Outline: as §1

CCNC(=O)c1noc(-c2cc(C(C)C)c(O)cc2O)c1-c1ccc(CN2CCOCC2)cc1 [Luminespib] + O=C(CCCCCCC(=O)Nc1ccccc1)NO [Vorinostat] (partner 1 µM)
relative viability (SK-MES-1; first compound 0.002 µM): 1.14
relative viability (SK-MES-1; first compound 0.006325 µM): 0.931
relative viability (SK-MES-1; first compound 0.02 µM): 1.04
relative viability (SK-MES-1; first compound 0.06325 µM): 0.174
relative viability (SK-MES-1; first compound 0.2 µM): 0.153
relative viability (EKVX; first compound 0.002 µM): 0.466
relative viability (EKVX; first compound 0.006325 µM): 0.684
relative viability (EKVX; first compound 0.02 µM): 0.47
relative viability (EKVX; first compound 0.06325 µM): 0.669
relative viability (EKVX; first compound 0.2 µM): 0.572
relative viability (CAL-12T; first compound 0.002 µM): 0.725
relative viability (CAL-12T; first compound 0.006325 µM): 0.802
relative viability (CAL-12T; first compound 0.02 µM): 0.29
relative viability (CAL-12T; first compound 0.06325 µM): 0.101
relative viability (CAL-12T; first compound 0.2 µM): 0.118
relative viability (NCI-H2228; first compound 0.002 µM): 0.873
relative viability (NCI-H2228; first compound 0.006325 µM): 0.503
relative viability (NCI-H2228; first compound 0.02 µM): 0.54
relative viability (NCI-H2228; first compound 0.06325 µM): 0.143
relative viability (NCI-H2228; first compound 0.2 µM): 0.15
relative viability (H3255; first compound 0.002 µM): 0.843
relative viability (H3255; first compound 0.02 µM): 0.625
relative viability (H3255; first compound 0.06325 µM): 0.745
relative viability (H3255; first compound 0.2 µM): 0.248
relative viability (ABC-1; first compound 0.002 µM): 1.34
relative viability (ABC-1; first compound 0.006325 µM): 0.291
relative viability (ABC-1; first compound 0.02 µM): 1.06
relative viability (ABC-1; first compound 0.06325 µM): 0.269
relative viability (ABC-1; first compound 0.2 µM): 0.325
relative viability (NCI-H460; first compound 0.002 µM): 0.775
relative viability (NCI-H460; first compound 0.006325 µM): 0.68
relative viability (NCI-H460; first compound 0.02 µM): 0.237
relative viability (NCI-H460; first compound 0.06325 µM): 0.0162
relative viability (NCI-H460; first compound 0.2 µM): 0.0131
relative viability (NCI-H2085; first compound 0.002 µM): 0.797
relative viability (NCI-H2085; first compound 0.006325 µM): 0.717
relative viability (NCI-H2085; first compound 0.02 µM): 0.553
relative viability (NCI-H2085; first compound 0.06325 µM): 0.367
relative viability (NCI-H2085; first compound 0.2 µM): 0.31
relative viability (NCI-H322M; first compound 0.002 µM): 0.83
relative viability (NCI-H322M; first compound 0.006325 µM): 0.407
relative viability (NCI-H322M; first compound 0.02 µM): 0.736
relative viability (NCI-H322M; first compound 0.06325 µM): 0.486
relative viability (NCI-H322M; first compound 0.2 µM): 0.417
relative viability (NCI-H2342; first compound 0.002 µM): 0.766
relative viability (NCI-H2342; first compound 0.006325 µM): 0.809
relative viability (NCI-H2342; first compound 0.02 µM): 0.467
relative viability (NCI-H2342; first compound 0.06325 µM): 0.679
relative viability (NCI-H2342; first compound 0.2 µM): 0.416
relative viability (HCC-366; first compound 0.002 µM): 0.38
relative viability (HCC-366; first compound 0.006325 µM): 0.35
relative viability (HCC-366; first compound 0.02 µM): 0.18
relative viability (HCC-366; first compound 0.06325 µM): 0.0252
relative viability (HCC-366; first compound 0.2 µM): 0.0243
relative viability (EPLC-272H; first compound 0.002 µM): 0.402
relative viability (EPLC-272H; first compound 0.006325 µM): 0.381
relative viability (EPLC-272H; first compound 0.02 µM): 0.505
relative viability (EPLC-272H; first compound 0.06325 µM): 0.0961
relative viability (EPLC-272H; first compound 0.2 µM): 0.171
relative viability (NCI-H2087; first compound 0.002 µM): 0.667
relative viability (NCI-H2087; first compound 0.006325 µM): 0.609
relative viability (NCI-H2087; first compound 0.02 µM): 0.656
relative viability (NCI-H2087; first compound 0.06325 µM): 0.111
relative viability (NCI-H2087; first compound 0.2 µM): 0.122
relative viability (NCI-H441; first compound 0.002 µM): 0.784
relative viability (NCI-H441; first compound 0.006325 µM): 0.823
relative viability (NCI-H441; first compound 0.02 µM): 0.785
relative viability (NCI-H441; first compound 0.06325 µM): 0.233
relative viability (NCI-H441; first compound 0.2 µM): 0.11
relative viability (ChaGo-K-1; first compound 0.002 µM): 0.678
relative viability (ChaGo-K-1; first compound 0.006325 µM): 0.728
relative viability (ChaGo-K-1; first compound 0.02 µM): 0.529
relative viability (ChaGo-K-1; first compound 0.06325 µM): 0.523
relative viability (ChaGo-K-1; first compound 0.2 µM): 0.23
relative viability (COR-L 105; first compound 0.002 µM): 0.917
relative viability (COR-L 105; first compound 0.006325 µM): 0.84
relative viability (COR-L 105; first compound 0.02 µM): 0.959
relative viability (COR-L 105; first compound 0.06325 µM): 0.43
relative viability (COR-L 105; first compound 0.2 µM): 0.278
relative viability (NCI-H1975; first compound 0.002 µM): 0.736
relative viability (NCI-H1975; first compound 0.006325 µM): 0.632
relative viability (NCI-H1975; first compound 0.02 µM): 0.592
relative viability (NCI-H1975; first compound 0.06325 µM): 0.138
relative viability (NCI-H1975; first compound 0.2 µM): 0.147
relative viability (HCC-827; first compound 0.002 µM): 0.817
relative viability (HCC-827; first compound 0.006325 µM): 0.884
relative viability (HCC-827; first compound 0.02 µM): 0.45
relative viability (HCC-827; first compound 0.06325 µM): 0.797
relative viability (HCC-827; first compound 0.2 µM): 0.144
relative viability (NCI-H2009; first compound 0.002 µM): 0.765
relative viability (NCI-H2009; first compound 0.006325 µM): 0.594
relative viability (NCI-H2009; first compound 0.02 µM): 0.705
relative viability (NCI-H2009; first compound 0.06325 µM): 0.429
relative viability (NCI-H2009; first compound 0.2 µM): 0.113
relative viability (NCI-H1355; first compound 0.002 µM): 0.581
relative viability (NCI-H1355; first compound 0.006325 µM): 0.641
relative viability (NCI-H1355; first compound 0.02 µM): 0.38
relative viability (NCI-H1355; first compound 0.06325 µM): 0.398
relative viability (NCI-H1355; first compound 0.2 µM): 0.12
relative viability (NCI-H1993; first compound 0.002 µM): 0.893
relative viability (NCI-H1993; first compound 0.006325 µM): 0.793
relative viability (NCI-H1993; first compound 0.02 µM): 0.552
relative viability (NCI-H1993; first compound 0.06325 µM): 0.246
relative viability (NCI-H1993; first compound 0.2 µM): 0.238
